Key:
male dd mice = assay: Acute toxicity test (minimum lethal dose, MLD); assay type: in vivo; settings: p.o., 7 days
Description: Using male dd mice weighing 20±1 g in groups of 3, each test compound was orally administered (300 mg/kg, p.o.).

ileal strips = assay: Gastrointestinal motility stimulation test (ileal strip, electric transmural stimulation); parameters: species or system male Hartley guinea pigs; settings: Cavia porcellus; for activation at 10 µg/mL: read-out: Amplification Degree (Electric Transmural Stimulation), 10^-5 g/ml; for activation at 1 µg/mL: read-out: Amplification Degree (Electric Transmural Stimulation), 10^-6 g/ml
Description: From male Hartley guinea pigs weighing 250-400 g, ileal strips, 2-3 cm long, were isolated. The ileal strip was suspended in a Tyrode's solution bath (30 ml) while supplying a mixture gas of 95% O2 -5% CO2 and maintained at 37±1° C. and using an isotonic transducer the longitudinal contractions of the strip were recorded. Supramaximal electric transmural stimulation of 1-millisecond duration was given at 10-second intervals. Each test compound was dissolved or suspended in physiological saline and added into the organ bath. The effect of each test compound on electric transmural stimulation was calculated from the amplitude of contractions (A) before administration and the amplitude of contractions (B) after administration using the following equation. [formula]

histamine H2 -receptor [1] = assay: antihistaminic (histamine H2 -receptor blocking) activity; settings: no method given
histamine H2 -receptor [2] = settings: known; cited from earlier work
gastrointestinal tract = settings: Scand. J. Gastroenterol., 21 (Suppl. 121), 30 (1986); cited from earlier work

SMILES	Acute Toxicity (MLD) (male dd mice) [mg/kg]	activation at 10 µg/mL (ileal strips) [%]	activation at 1 µg/mL (ileal strips) [%]	antihistaminic activity (histamine H2 -receptor [1])	histamine H2 -receptor blocking activity (histamine H2 -receptor [2])	activity to stimulate motility of the gastrointestinal tract (gastrointestinal tract)
CNC(=C[N+](=O)[O-])NCCNCc1ccc(CN(C)C)o1 [Compound 1, N-[2-[(5-Dimethylaminomethyl-2-furanyl)methylamino]ethyl]-N'-methyl-2-nitroethene-1,1-diamine]	> 300	30				
CNC(NCCNCc1ccc(CN(C)C)o1)=C(C#N)C#N [Compound 2, [[2-[(5-Dimethylaminomethyl-2-furanyl)methylamino]ethyl]amino(methylamino)methylene]propanedinitrile]	> 300	80.5	31			
CNC(NCCCNCc1ccc(CN(C)C)o1)=C(C#N)C#N [Compound 6, [[3-[(5-Dimethylaminomethyl-2-furanyl)methylamino]propylamino](methylamino)methylene]propanedinitrile]	> 300	34				
CNC(NCCNC(=O)c1ccc(CN(C)C)o1)=C(C#N)C#N [Compound 10, 5-(Dimethylaminomethyl)-N-[2-(1-methylamino-2,2-dicyanovinylamino)ethyl]-2-furancarboxamide]	> 300	36.4	15.3			
CNC(NCCNCc1ccc(CN(C(C)C)C(C)C)o1)=C(C#N)C#N [Compound 12, [[2-[(5-Diisopropylaminomethyl-2-furanyl)methylamino]ethyl]amino(methylamino)methylene]propanedinitrile]	> 300	55.8	34.3			
CNC(NCCNCc1ccc(CN2CCCC2)o1)=C(C#N)C#N [Compound 13, [[2-[(5-Pyrrolidinylmethyl-2-furanyl)methylamino]ethyl](methylamino)methylene]propanedinitrile]	> 300	70.8	34.5			
CNC(NCCNCc1ccc(CN2CCCCC2)o1)=C(C#N)C#N [Compound 14, [[2-[(5-Piperidinomethyl-2-furanyl)methylamino]ethyl](methylamino)methylene]propanedinitrile]	> 300	79.3	37.3			
CNc1c(NCCNCc2ccc(CN3CCCCC3)o2)c(=O)c1=O [Compound 17, 1-Methylamino-2-[[2-[(5-piperidinomethyl-2-furanyl)methylamino]ethyl]amino]cyclobutene-3,4-dione]	> 300	75	19.5			
CN(C)Cc1ccc(CNCCN2CCNC2=C(C#N)C#N)o1 [Compound 22, [1-[2-[(5-Dimethylaminomethyl-2-furanyl)methylamino]ethyl]-2-imidazolidinylidene]propanedinitrile]	> 300		56			
CCN(C)Cc1ccc(CNCCN2CCNC2=C(C#N)C#N)o1 [Compound 25, [1-[2-[(5-Ethylmethylaminomethyl-2-furanyl)methylamino]ethyl]-2-imidazolidinylidene]propanedinitrile]	> 300		63.5			
N#CC(C#N)=C1NCCN1CCNCc1ccc(CN2CCCC2)o1 [Compound 27, [1-[2-[(5-Pyrrolidinylmethyl-2-furanyl)methylamino]ethyl]-2-imidazolidinylidene]propanedinitrile]	> 300		12			
N#CC(C#N)=C1NCCN1CCNCc1ccc(CN2CCCCC2)o1 [Compound 28, [1-[2-[(5-Piperidinomethyl-2-furanyl)methylamino]ethyl]-2-imidazolidinylidene]propanedinitrile]	100					
N#CC(C#N)=C1NCCN1CCNCc1ccc(CN2CCCCCC2)o1 [Compound 29, [1-[2-[(5-Perhydroazepinylmethyl-2-furanyl)methylamino]ethyl]-2-imidazolidinylidene]propanedinitrile]	200		68			
CC1CCN(Cc2ccc(CNCCN3CCNC3=C(C#N)C#N)o2)CC1 [Compound 32, [1-[2-[[5-(4-Methylpiperidinomethyl)-2-furanyl]methylamino]ethyl]-2-imidazolidinylidene]propanedinitrile]	> 300		52			
COC1CCCN(Cc2ccc(CNCCN3CCNC3=C(C#N)C#N)o2)C1 (centres unmarked) [Compound 34, [1-[2-[[5-(3-Methoxypiperidinomethyl)-2-furanyl]methylamino]ethyl]-2-imidazolidinylidene]propanedinitrile]	> 300	81.3	23			
N#CC(C#N)=C1NCCN1CCNCc1ccc(CN2CCSCC2)o1 [Compound 38]	> 300		34.5			
CN(CCN1CCNC1=C(C#N)C#N)Cc1ccc(CN2CCCCC2)o1 [Compound 45, [1-[2-[N-(Methyl)-N-[(5-piperidinomethyl-2-furanyl)methyl]amino]ethyl]-2-imidazolidinylidene]-propanedinitrile]	> 300	72.1	43.8			
CCN(CC)CCNC(=O)c1cc(Cl)c(N)cc1OC [Metoclopramide, reference compound]	200	33.4	18			
CNC(=C[N+](=O)[O-])NCCSCc1ccc(CN(C)C)o1 [Ranitidine, reference compound]	> 300	42.2	35	found	having histamine H2 -receptor blocking activity	weak
